Laboratory results published in PubChem BioAssay AID1383 (University of Pittsburgh Molecular Library Screening Center, 2008).
Active and inactive are the calls of the source. No rule for the calls is given here.

Target: Serine/threonine-protein kinase PLK1 (Homo sapiens) (UniProt P53350)
Assay: activity against human Plk1 kinase – biochemical, selectivity assay for PKD inhibitor project, dose response (AID 1383)
Conditions: counterscreen

Chain of Serine/threonine-protein kinase PLK1 (Homo sapiens) (P53350 whole entry, looked up): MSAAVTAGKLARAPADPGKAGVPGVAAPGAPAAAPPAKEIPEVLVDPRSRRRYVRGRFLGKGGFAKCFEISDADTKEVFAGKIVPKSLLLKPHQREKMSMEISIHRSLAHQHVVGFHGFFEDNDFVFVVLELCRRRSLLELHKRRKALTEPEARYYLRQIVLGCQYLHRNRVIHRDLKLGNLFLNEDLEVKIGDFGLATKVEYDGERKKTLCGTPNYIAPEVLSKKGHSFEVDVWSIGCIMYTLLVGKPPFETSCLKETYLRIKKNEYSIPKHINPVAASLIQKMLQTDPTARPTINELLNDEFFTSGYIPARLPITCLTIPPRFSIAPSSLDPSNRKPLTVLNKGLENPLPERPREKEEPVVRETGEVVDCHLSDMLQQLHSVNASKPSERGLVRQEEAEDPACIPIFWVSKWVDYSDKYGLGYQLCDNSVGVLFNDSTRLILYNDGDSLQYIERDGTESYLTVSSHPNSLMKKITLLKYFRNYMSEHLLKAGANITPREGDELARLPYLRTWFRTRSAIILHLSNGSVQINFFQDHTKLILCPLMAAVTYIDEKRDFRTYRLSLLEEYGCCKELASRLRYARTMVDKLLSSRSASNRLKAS

IC50: > 50 µM (inactive)
Structure (SMILES): Clc1cncc(Cl)c1N/N=C/c1ccncc1
